What was measured:
Assay type in all cases: in vivo
[1] = system: Polygonum convolvulus; assay: Herbicidal action pre-emergence, greenhouse pot test; details: application rate 320 g/ha
Method in brief: (§1)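 Efficacy (%) was estimated visually after about 3 weeks in the greenhouse by comparison with untreated pots. Before that, seeded pots received a surface spray of formulated compound at 320 g/ha or less.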

[2] = system: Pharbitis purpurea; assay: as above; details: application rate 320 g/ha
Method in brief: as §1

[3] = system: Amaranthus retroflexus; assay: as above
Method in brief: as §1

[4] = system: Echinochloa crus-galli; assay: as above; details: application rate 320 g/ha
Method in brief: as §1

[5] = system: Stellaria media; assay: as above; details: application rate 320 g/ha
Method in brief: as §1

[6] = system: Alopecurus myosuroides; assay: as above
Method in brief: as §1

[7] = system: Setaria viridis; assay: as above; details: application rate 320 g/ha
Method in brief: as §1

[8] = system: Viola tricolor; assay: as above; details: application rate 320 g/ha
Method in brief: as §1

[9] = system: Abutilon theophrasti; assay: as above; details: application rate 320 g/ha
Method in brief: as §1

[10] = system: Veronica persica; assay: as above; details: application rate 320 g/ha
Method in brief: as §1

[11] = system: Cyperus esculentus; assay: as above; details: application rate 320 g/ha
Method in brief: as §1

[12] = system: Lolium multiflorum; assay: as above; details: application rate 80 g/ha, scored visually after about 3 weeks vs untreated controls
Method in brief: as §1

[13] = system: Triticum aestivum; assay: Crop compatibility post-emergence, greenhouse pot test
Method in brief: (§2)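 Sandy loam pots, greenhouse; one-leaf stage, 2–3 wk post-sowing; WP or EC, aq. spray on green parts, 0.5% additive, 600 L/ha; ~3 wk; visual score % vs untreated (0 = control-like, 100 = dead).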

[14] = system: Oryza sativa; assay: as above; details: application rate 20 g/ha
Method in brief: as §2

[15] = system: Polygonum convolvulus; assay: Herbicidal action post-emergence, greenhouse pot test; details: application rate 80 g/ha
Method in brief: (§3)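 Plants grown from seed in sandy loam are treated at the one-leaf stage with aqueous suspensions or emulsions, 600 L/ha water rate, 0.5% additive, at 80 g/ha or lower. They then stand about 3 weeks in the greenhouse before visual scoring against untreated controls.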

[16] = system: Pharbitis purpurea; assay: as above; details: application rate 80 g/ha
Method in brief: as §3

[17] = system: Amaranthus retroflexus; assay: as above; details: application rate 80 g/ha
Method in brief: as §3

[18] = system: Echinochloa crus-galli; assay: as above; details: application rate 80 g/ha
Method in brief: as §3

[19] = system: Stellaria media; assay: as above; details: application rate 80 g/ha
Method in brief: as §3

[20] = system: Alopecurus myosuroides; assay: as above; details: application rate 80 g/ha, scored visually after about 3 weeks vs untreated controls
Method in brief: as §3

[21] = system: Setaria viridis; assay: as above; details: application rate 80 g/ha
Method in brief: as §3

[22] = system: Viola tricolor; assay: as above; details: application rate 80 g/ha
Method in brief: as §3

[23] = system: Matricaria inodora; assay: as above; details: application rate 80 g/ha
Method in brief: as §3

[24] = system: Abutilon theophrasti; assay: as above; details: application rate 80 g/ha
Method in brief: as §3

[25] = system: Avena fatua; assay: as above; details: application rate 80 g/ha
Method in brief: as §3

[26] = system: Veronica persica; assay: as above; details: application rate 80 g/ha
Method in brief: as §3

[27] = system: Lolium multiflorum; assay: as above; details: application rate 80 g/ha
Method in brief: as §3

[28] = system: Matricaria inodora; assay: Herbicidal action pre-emergence, greenhouse pot test; details: application rate 320 g/ha
[29] = system: Digitaria sanguinalis; assay: as above; details: application rate 320 g/ha
From the text: Seeds of mono- and dicotyledonous weeds and crop plants were laid out in plastic or organic plant pots and covered with soil. The compounds of the invention formulated in the form of wettable powders (WP) or as emulsion concentrates (EC) were then applied to the surface of the covering soil as an aqueous suspension or emulsion with addition of 0.5% additive at a water application rate equivalent to 600 L/ha. After the treatment, the pots were placed in a greenhouse and kept under good growth conditions for the test plants. After about 3 weeks, the efficacy of the preparations was scored visually as a percentage by comparison with untreated controls. For example, 100% efficacy=plants have died. 0% efficacy=like control plants.

[30] = system: Digitaria sanguinalis; assay: Herbicidal action post-emergence, greenhouse pot test; details: application rate 80 g/ha
[31] = system: Hordeum murinum; assay: Herbicidal action pre-emergence, greenhouse pot test; details: application rate 320 g/ha
Method in brief: as §1

[32] = system: Lolium rigidum; assay: as above; details: application rate 320 g/ha
Method in brief: as §1

[33] = system: Zea mays; assay: Crop compatibility post-emergence, greenhouse pot test; details: application rate 20 g/ha
Method in brief: as §2

[34] = system: Lolium rigidum; assay: Herbicidal action post-emergence, greenhouse pot test; details: application rate 80 g/ha
Method in brief: as §3

| Compound | Polygonum convolvulus (Efficacy in %) [1] [%] | Pharbitis purpurea (Efficacy in %) [2] [%] | Echinochloa crus-galli (Efficacy in %) [4] [%] | Stellaria media (Efficacy in %) [5] [%] | Setaria viridis (Efficacy in %) [7] [%] | Viola tricolor (Efficacy in %) [8] [%] | Abutilon theophrasti (Efficacy in %) [9] [%] | Veronica persica (Efficacy in %) [10] [%] | Oryza sativa (Efficacy in %) [14] [%] | Polygonum convolvulus (Efficacy in %) [15] [%] | Pharbitis purpurea (Efficacy in %) [16] [%] | Amaranthus retroflexus (Efficacy in %) [17] [%] | Echinochloa crus-galli (Efficacy in %) [18] [%] | Stellaria media (Efficacy in %) [19] [%] | Alopecurus myosuroides (Efficacy in %) [20] [%] | Setaria viridis (Efficacy in %) [21] [%] | Viola tricolor (Efficacy in %) [22] [%] | Matricaria inodora (Efficacy in %) [23] [%] | Abutilon theophrasti (Efficacy in %) [24] [%] | Avena fatua (Efficacy in %) [25] [%] | further results |
| --- | --- | --- | --- | --- | --- | --- | --- | --- | --- | --- | --- | --- | --- | --- | --- | --- | --- | --- | --- | --- | --- |
| CCOC(=O)CCOC(=O)C(C)Sc1cc(-n2c(=O)cc(C(F)(F)F)n(C)c2=O)c(F)cc1Cl (centres unmarked) [I.1-3] | 100 | 100 | 100 | 100 | 100 | 100 | 100 | 100 | 20 | 100 | 100 | 100 | 100 | 100 | 100 | 100 | 100 | 100 | 100 | 80 | Amaranthus retroflexus (Efficacy in %) ([3]; application rate 80 g/ha): 100%; Alopecurus myosuroides (Efficacy in %) ([6]; application rate 80 g/ha): 90%; Cyperus esculentus (Efficacy in %) [11]: 100%; Lolium multiflorum (Efficacy in %) [12]: 100%; Triticum aestivum (Efficacy in %) ([13]; application rate 20 g/ha): 10%; Veronica persica (Efficacy in %) [26]: 100%; Lolium multiflorum (Efficacy in %) [27]: 100%; Matricaria inodora (Efficacy in %) [28]: 100% |
| COC(=O)C(C)(C)COC(=O)C(C)Sc1cc(-n2c(=O)cc(C(F)(F)F)n(C)c2=O)c(F)cc1Cl (centres unmarked) [I.1-32] | 100 | 100 | 100 | 100 | 100 | 100 | 100 | 100 | 20 | 100 | 100 | 100 | 100 | 100 | 80 | 100 | 100 | 100 | 100 | 80 | Digitaria sanguinalis (Efficacy in %) [29]: 100%; Digitaria sanguinalis (Efficacy in %) [30]: 100%; Hordeum murinum (Efficacy in %) [31]: 90%; Amaranthus retroflexus (Efficacy in %) ([3]; application rate 320 g/ha): 100%; Lolium rigidum (Efficacy in %) [32]: 90%; Alopecurus myosuroides (Efficacy in %) ([6]; application rate 320 g/ha): 90%; Zea mays (Efficacy in %) [33]: 20%; Triticum aestivum (Efficacy in %) ([13]; application rate 5 g/ha): 20%; Lolium rigidum (Efficacy in %) [34]: 100%; Veronica persica (Efficacy in %) [26]: 100%; Matricaria inodora (Efficacy in %) [28]: 100% |
